Laboratory results published in patent publication US20090105301A1, “9A-SUBSTITUTED AZALIDES FOR THE TREATMENT OF MALARIA” (priority 2006, published 2009).
Converted amounts (≈) assume the structure as drawn.

Columns and labels:
[1] = system: P. falciparum W2 (CDC/Indochina III, W-2); assay: In vitro screening protocol I, [3H]-hypoxanthine incorporation, W2; assay type: cell-based, Plasmodium falciparum; conditions: In vitro screening protocol I, P. falciparum W2; for IC50: Plasmodium falciparum, read-out: IC50 W2
In short: (§1)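 Asexual blood-stage P. falciparum was cultured in human A+ erythrocytes at 37 °C under 5% CO2/5% O2, and growth was measured by [3H]-hypoxanthine incorporation over 72 h total. TM91C235 was prescreened at 25,000, 2,500 and 25 ng/ml in folate-free medium. D-6 and W-2 IC50s came from 11-point two-fold dilutions by logistic fit.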

[2] = system: P. falciparum D6 (CDC/Sierra Leone I, D-6); assay: In vitro screening protocol I, [3H]-hypoxanthine incorporation, D6; assay type: cell-based, Plasmodium falciparum; conditions: In vitro screening protocol I, P. falciparum D6; for IC50: Plasmodium falciparum, read-out: IC50 D6
In short: as §1

[3] = system: Plasmodium falciparum strain W2; assay: In vitro screening protocol II, [3H] hypoxanthine incorporation IC50 assay, W2; assay type: cell-based; conditions: P. falciparum W2; for IC50: Plasmodium falciparum
Method: (§2) The protocol described here is a modification of the in vitro screening protocol I and the details of the methodology are given below.
(§3) Plasmodium falciparum strains 3D7A and W2.
(§4) The culture medium comprised RPMI 1640 with 25 mM HEPES, sodium bicarbonate and glutamine (GIBCO™ cat. ref.: 52400), supplemented with 10% of pooled human sera AB (Bioreclamation HMSRM-AB)) and HT supplement (0.15 mM hypoxanthine and 24 μM thymidine), (GIBCO™ cat. ref.: 41065). Human sera were decomplemented 30 min. at 56° C., aliquoted and stored frozen at −20° C. until use in this culture medium.
(§5) This culture medium (“complete medium”) was usually prepared fresh just before use and pre-warmed to 37° C.
(§6) Red blood cells AB− stock suspensions were prepared from whole blood bags coming from incomplete blood donation, provided by the Spanish Red Cross (<25 days after sampling). This “whole blood” was aliquoted and stored at 4° C.
(§7) To prepare red blood cells for the assay, the whole blood was centrifuged and washed 3 times with RPMI without serum. The upper phase, containing white blood cells was removed. The washed red blood cells were kept as a 50% suspension in complete medium. The prepared cells were stored at 4° C. and were employed in the assay at any time up to 4 days after preparation.
(§8) Test compounds were dissolved at 2 mg/ml in 100% DMSO on the day of the assay. If necessary, complete dissolution was achieved by gentle heating (the mixture was heated at a temperature <37° C.) and sonication (sonication bath).
(§9) For IC50 determinations, 10 serial 2-fold dilutions were prepared in complete medium in the presence of a constant amount of DMSO. Any obvious signs of insolubility of the stock solutions in 100% DMSO or precipitation when these solutions were diluted in assay media, were recorded.
(§10) Plasmodium falciparum strains were maintained in complete medium at 5% of hematocrit in continuous culture using a method adapted from Trager W. and Jensen J. B. (Human malaria parasites in continuous culture Science 193 (4254) (1976) 673-675) and Trager W. (Cultivation of malaria parasites Methods Cell Biol. 45 (1994) 7-26).
(§11) The parasitemia was calculated by counting the percentage of parasitized erythrocytes by optical microscopy. Thin films of blood were made every day from each culture flask, fixed with methanol and stained for 10 min. in Giemsa (Merck, cat ref.: 1.09204) at 10% in buffered water pH 7.2. The glass slides were observed and counted with an optical microscope (Nikon, Eclipse E200) equipped with a 100× immersion oil objective.
(§12) The culture was maintained at 5% of hematocrit, with a daily change of medium and was diluted when parasitemia had reached about 5%.
(§13) [^3H] Hypoxanthine incorporation assay was conducted using a method adapted from Desjardins R. E. et al. (Quantitative assessment of antimalarial activity in vitro by a semiautomated microdilution technique. Antimicrob. Agents Chemother., 16 (6) (1979) 710-718). The assays were performed in 96 wells flat bottom microplates.
(§14) 1. Serial dilutions of each test compound (25 μl of a 5× solution/well) were deposited in one row of assay microtiter plate. Compounds of this invention were tested in this assay. Chloroquine and Azithromycin were used as control compounds for each assay.
(§15) 2. […] 100 μl of the resulting suspension was distributed into each well of columns 1-11 of assay microtiter plate leading to a final volume of 125 μl per well, at 1.2% of hematocrit and 0.4% of parasitemia/well.
(§16) 3. In each plate, 2 columns were reserved for control wells: • Column 11 (comprising wells A11-H11): Positive control wells: Untreated PRBCs to compare with cultures treated with test compounds. • Column 12 (comprising wells A12-H12): • Background value wells: Uninfected RBCs—blank control to obtain the background reading from RBCs without parasites (at 1.2% of hematocrite value).
(§17) 4. The plates were incubated at 37° C. under low oxygen atmosphere. […]

[4] = system: Plasmodium falciparum strain 3D7A; assay: In vitro screening protocol II, [3H] hypoxanthine incorporation IC50 assay, 3D7A; assay type: cell-based; conditions: P. falciparum 3D7A; for IC50: Plasmodium falciparum
Method: as §2, §3, §4, §5, §6, §7, §8, §9, §10, §11, §12, §13, §14, §15, §16, §17

P. falciparum TM91C235 = assay: In vitro screening protocol I, [3H]-hypoxanthine incorporation, TM91C235; assay type: cell-based, Plasmodium falciparum; conditions: In vitro screening protocol I, P. falciparum TM91C235; for IC50: Plasmodium falciparum, read-out: IC50 TM91C235
Plasmodium falciparum = conditions: non-immune patients, as compared to controls; cited from earlier work
Plasmodium cynomolgi = conditions: rhesus monkey; cited from earlier work
Plasmodium vivax = conditions: non-immune patients, as compared to controls; cited from earlier work
[5] = system: Plasmodium yoelii nigeriensis; conditions: cited from earlier work
Plasmodium berghei = conditions: cited from earlier work

Work on `CC[C@H]1OC(=O)[C@H](C)[C@@H](O[C@H]2C[C@@](C)(OC)[C@@H](O)[C@H](C)O2)[C@H](C)[C@@H](O[C@@H]2O[C@H](C)C[C@H](N(C)C)[C@H]2O)[C@](C)(O)C[C@@H](C)CN(CCCNCc2cccc3ccccc23)[C@H](C)[C@@H](O)[C@]1(C)O` [Example 8, 9a-{3-[(Naphtalen-1-yl-methyl)amino]propyl}-9-deoxo-9-dihydro-9a-aza-9a-homoerythromycin A] yielded an IC50 [1] of under 0.1 µg/mL, an IC50 [2] of under 0.1 µg/mL and an IC50 [3] of under 0.1 µg/mL. It also gave an IC50 [4] of 0.1 to 0.2 µg/mL (≈ 0.107 to 0.215 µM) and an IC50 (P. falciparum TM91C235) of under 0.1 µg/mL.

With `CC[C@H]1OC(=O)[C@H](C)[C@@H](O)[C@H](C)[C@@H](O[C@@H]2O[C@H](C)C[C@H](N(C)C)[C@H]2O)[C@](C)(O)C[C@@H](C)CN(CCCNCc2ccnc3ccccc23)[C@H](C)[C@@H](O)[C@]1(C)O` [Example 15, 9a-{3-[(Quinolin-4-yl-methyl)amino]propyl}-3-O-decladinosyl-9-deoxo-9-dihydro-9a-aza-9a-homoerythromycin A] the “IC50 W2” value [1] was “B (100 < X ≦ 200)”, the “IC50 D6” value [2] was “B (100 < X ≦ 200)” and the “IC50 W2” value [3] was “C (200 < X ≦ 1000)”. For the same compound, the “IC50 3D7A” value [4] was “C (200 < X ≦ 1000)” and the “IC50 TM91C235” value (P. falciparum TM91C235) was “C (200 < X ≦ 1000)”.

For `CC[C@H]1OC(=O)[C@H](C)[C@@H](O[C@H]2C[C@@](C)(OC)[C@@H](O)[C@H](C)O2)[C@H](C)[C@@H](O[C@@H]2O[C@H](C)C[C@H](N(C)C)[C@H]2O)[C@](C)(O)C[C@@H](C)CN(CCCNC(=O)/C=C/c2cnc3ccccc3c2)[C@H](C)[C@@H](O)[C@]1(C)O` [Example 76, 9a-(3-{[(2E)-3-(Quinolin-3-yl)-2-propenoyl]amino}propyl)-9-deoxo-9-dihydro-9a-aza-9a-homoerythromycin A], the IC50 [3] was 0.2 to 1 µg/mL (≈ 0.205 to 1.03 µM) and the IC50 [4] was 0.2 to 1 µg/mL (≈ 0.205 to 1.03 µM).

With `CC(=O)O.CC(=O)O.CC(=O)O.CCC1OC(=O)C(C)C(OC2CC(C)(OC)C(O)C(C)O2)C(C)C(OC2OC(C)CC(N(C)C)C2O)C(C)(O)CC(C)CN(CCCNc2ccnc3cc(Cl)ccc23)C(C)C(O)C1(C)O` (stereo not shown) [Example 77] the “IC50 W2” value [3] was “A (X ≦ 100)” and the “IC50 3D7A” value [4] was “A (X ≦ 100)”.

In the case of `CC(=O)O.CC(=O)O.CCC1OC(=O)C(C)C(OC2CC(C)(OC)C(O)C(C)O2)C(C)C(OC2OC(C)CC(N(C)C)C2O)C(C)(O)CC(C)CN(CCCNCc2ccnc3ccccc23)C(C)C(O)C1(C)O` (stereo not shown) [Example 78, 9a-{3-[(Quinolin-4-yl-methyl)amino]propyl}-9-deoxo-9-dihydro-9a-aza-9a-homoerythromycin A Diacetate Salt], the “IC50 W2” value [3] is reported as “A (X ≦ 100)” and the “IC50 3D7A” value [4] is reported as “C (200 < X ≦ 1000)”.

With `CC(=O)O.CC(=O)O.CC(=O)O.CCC1OC(=O)C(C)C(O)C(C)C(OC2OC(C)CC(N(C)C)C2O)C(C)(O)CC(C)CN(CCCNc2ccnc3cc(Cl)ccc23)C(C)C(O)C1(C)O` (stereo not shown) [Example 79] the “IC50 W2” value [3] was “A (X ≦ 100)” and the “IC50 3D7A” value [4] was “A (X ≦ 100)”.

For `CC[C@H]1OC(=O)[C@H](C)[C@@H](O[C@H]2C[C@@](C)(OC)[C@@H](O)[C@H](C)O2)[C@H](C)[C@@H](O[C@@H]2O[C@H](C)C[C@H](N(C)C)[C@H]2O)[C@](C)(O)C[C@@H](C)CN(C)[C@H](C)[C@@H](O)[C@]1(C)O` [azithromycin, reference compound], the IC50 [1] is listed as 2.8 to 3.5 µg/mL (≈ 3.74 to 4.67 µM), the prophylactic efficacy (Plasmodium falciparum) is listed as 71.6% and the “efficacy in monkey model” value (Plasmodium cynomolgi) is listed as “active”. For the same compound, the IC50 [2] was 1 to 2.5 µg/mL (≈ 1.34 to 3.34 µM), the IC50 [3] was 2.5 to 2.8 µg/mL (≈ 3.34 to 3.74 µM) and the prophylactic efficacy (Plasmodium vivax) was 98.9%. The IC50 (P. falciparum TM91C235) was 3.5 to 5 µg/mL (≈ 4.67 to 6.68 µM).

In the case of midecamycinin, the “efficacy in monkey model” value (Plasmodium cynomolgi) is given as “no efficacy”, the “activity in mouse model” value [5] is given as “active” and the “activity in mouse model” value (Plasmodium berghei) is given as “active”.
